Measurements from US8071612B2, “6-alkenyl and 6-phenylalkyl substituted 2-quinolinones and 2-quinoxalinones as poly(ADP-ribose) polymerase inhibitors” (Janssen Pharmaceutica, NV, priority 2004, dated 2011).

Key:
[1] = system: infarct size in the heart; details: rabbits, cited from earlier work
[2] = system: colitis; details: rats, colitis by intraluminal trinitrobenzene sulfonic acid in 50% ethanol; cited from earlier work
[3] = target: T1, PARP-1 enzyme (Homo sapiens, UniProt P09874); assay: In vitro Scintillation Proximity Assay (SPA) for PARP-1 inhibitory activity; format: biochemical; details: nicked DNA activated PARP-1, [3H]-NAD+, biotinylated histones; read-out: In vitro SPA pIC50 (converted)
T1 construct: made in house
T1 sequence (P09874 whole entry): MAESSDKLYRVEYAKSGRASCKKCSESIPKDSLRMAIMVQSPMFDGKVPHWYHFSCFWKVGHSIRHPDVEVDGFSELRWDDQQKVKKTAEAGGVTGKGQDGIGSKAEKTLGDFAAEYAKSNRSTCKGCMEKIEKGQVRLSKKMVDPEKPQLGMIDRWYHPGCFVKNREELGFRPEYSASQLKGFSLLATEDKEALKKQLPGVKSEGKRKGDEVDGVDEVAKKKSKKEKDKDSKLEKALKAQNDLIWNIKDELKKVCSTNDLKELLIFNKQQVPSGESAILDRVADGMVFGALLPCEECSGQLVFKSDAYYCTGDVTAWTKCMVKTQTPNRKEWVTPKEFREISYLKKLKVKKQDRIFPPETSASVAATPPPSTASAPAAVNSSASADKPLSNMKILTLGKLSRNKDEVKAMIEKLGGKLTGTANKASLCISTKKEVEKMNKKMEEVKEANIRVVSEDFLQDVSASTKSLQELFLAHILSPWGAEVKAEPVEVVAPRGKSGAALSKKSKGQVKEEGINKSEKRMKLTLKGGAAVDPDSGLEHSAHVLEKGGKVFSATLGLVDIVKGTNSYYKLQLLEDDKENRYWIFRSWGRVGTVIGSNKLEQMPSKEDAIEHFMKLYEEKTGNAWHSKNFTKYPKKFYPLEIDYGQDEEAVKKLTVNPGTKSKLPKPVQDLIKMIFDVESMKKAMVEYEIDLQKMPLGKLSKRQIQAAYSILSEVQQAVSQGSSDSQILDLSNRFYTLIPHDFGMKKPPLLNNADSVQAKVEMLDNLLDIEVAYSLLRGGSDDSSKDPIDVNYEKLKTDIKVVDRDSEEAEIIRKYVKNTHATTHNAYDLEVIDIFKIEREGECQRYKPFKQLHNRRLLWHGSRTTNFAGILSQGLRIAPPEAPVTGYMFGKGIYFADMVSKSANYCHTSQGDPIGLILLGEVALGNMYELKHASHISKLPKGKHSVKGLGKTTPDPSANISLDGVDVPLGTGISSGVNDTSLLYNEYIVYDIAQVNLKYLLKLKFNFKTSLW
Procedure, shortened: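 Human PARP-1 (5–10 μg/ml), activated by nicked DNA (2 μg/ml), ADP-ribosylated biotinylated histones (2 μg/ml) using [3H]-NAD+ as donor for 15 min at room temperature in Tris pH 8/DTT/MgCl2. The reaction was stopped with NAD+ (2 mM final) and read by SPA scintillation counting. IC50 was interpolated from blank-corrected % of control and reported as pIC50.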

[4] = target: T1, PARP-1 enzyme; assay: In vitro filtration assay for PARP-1 inhibitory activity; format: biochemical; details: nicked DNA activated PARP-1, [32P]-NAD, histones; read-out: In vitro filtration assay pIC50 (converted)
Method: Compounds of the present invention were tested in an in vitro filtration assay assessing PARP-1 activity (triggered in the presence of nicked DNA) by means of its histone poly (ADP-ribosyl)ation activity using [^32P]-NAD as ADP-ribosyl donor. The radioactive ribosylated histones were precipitated by trichloroacetic acid (TCA) in 96-well filterplates and the incorporated [^32P] measured using a scintillation counter
A mixture of histones (stock solution: 5 mg/ml in H2O), NAD (stock solution: 100 mM in H2O), and [^32P]-NAD^+ in incubation buffer (50 mM Tris/HCl, pH 8; 0.2 mM DTT; 4 mM MgCl2) was made. A mixture of the PARP-1 enzyme (5-10 μg/ml) and nicked DNA was also made. The nicked DNA was prepared as described in the in vitro SPA for PARP-1 inhibitory activity. Seventy-five μl of the PARP-1 enzyme/DNA mixture together with 1 μl of compound in DMSO and 25 μl of histones-NAD^+/[^32P]-NAD^+ mixture was added per well of a 96-well filterplate (0.45 μm, supplier Millipore). The final concentrations in the incubation mixture were 2 μg/ml for the histones, 0.1 mM for the NAD^+, […] (0.5 μC) for the [^32P]-NAD^+ and 2 μg/ml for the nicked DNA. Plates were incubated for 15 min. at room temperature and the reaction was terminated by the addition of 10 μl ice cold 100% TCA followed by the addition of 10 μl ice-cold BSA solution (1% in H2O). The protein fraction was allowed to precipitate for 10 min. at 4° C. and plates were vacuum filtered. The plates were subsequently washed with, for each well, 1 ml of 10% ice cold TCA, 1 ml of 5% ice cold TCA and 1 ml of 5% TCA at room temperature. Finally 100 μl of scintillation solution (Microscint 40, Packard) was added to each well and the plates were transferred to a TopCountNXT™ (supplier: Packard) for scintillation counting and values were expressed as counts per minute (cpm). For each experiment, controls (containing PARP-1 enzyme and DMSO without compound), a blank incubation (containing DMSO but no PARP-1 enzyme or compound) and samples (containing PARP-1 enzyme and compound dissolved in DMSO) were run in parallel. All compounds tested were dissolved and eventually further diluted in DMSO. In first instance, compounds were tested at a concentration of 10^−5M. […] In each test, the blank value was subtracted from both the control and the sample values. The control sample represented maximal PARP-1 enzyme activity. For each sample, the amount of cpm was expressed as a percentage of the mean cpm value of the controls. When appropriate, IC50-values (concentration of the drug, needed to reduce the PARP-1 enzyme activity to 50% of the control) were computed using linear interpolation between the experimental points just above and below the 50% level. Herein the effects of test compounds are expressed as pIC50 (the negative log value of the IC50-value). As a reference compound, 4-amino-1,8-naphthalimide was included to validate the filtration assay.

| Structure (SMILES) | reduction in infarct size ([1]; single injection 1 mg/kg) | effect on inflammatory response, morphology and energetic status of the distal colon [2] | reduction in infarct size in the heart ([1]; single injection 10 mg/kg, one minute before occlusion or one minute before reperfusion) | IC50 [3] [nM] | melting point [°C] | IC50 [4] [nM] |
| --- | --- | --- | --- | --- | --- | --- |
| Oc1cccc2c(O)nccc12 [1,5-dihydroxyisoquinoline] | 38-48% | – | – | – | – | – |
| NC(=O)c1cccc(N)c1 [3-amino-benzamide] | – | reduced the inflammatory response and restored the morphology and the energetic status of the distal colon | 32-42% | – | – | – |
| CNC(c1ccccc1)c1ccc2[nH]c(=O)c(C)cc2c1 (stereo not shown) [Compound 1] | – | – | – | 285 | 174.3 | 2330 |
| CCc1cc2cc(C(OC(C)=O)c3ccccc3)ccc2[nH]c1=O (stereo not shown) [Compound 3] | – | – | – | 407 | 168.2 | 4340 |
| Cc1cc2cc(C(C#N)c3ccccc3)ccc2[nH]c1=O (stereo not shown) [Compound 4] | – | – | – | 435 | 227.5 | 2670 |
| Cc1cc2cc(C(c3ccccc3)n3cncn3)ccc2[nH]c1=O (stereo not shown) [Compound 5] | – | – | – | 1400 | 254.2 | 9440 |
| Cc1cc2cc(C(c3ccccc3)N(C)C)ccc2[nH]c1=O (stereo not shown) [Compound 6] | – | – | – | 957 | 226.7 | 3940 |
| CC(=O)NCC(c1ccccc1)c1ccc2[nH]c(=O)c(C)cc2c1 (stereo not shown) [Compound 8] | – | – | – | 213 | 206.2 | 2540 |
| COC(c1ccccc1)c1ccc2[nH]c(=O)c(C)cc2c1 (stereo not shown) [Compound 9] | – | – | – | 1800 | 207.3 | 9400 |
| CCc1cc2cc(C(c3ccc4c(c3)OCCO4)C3CCN(C/C=C/c4ccccc4)CC3)ccc2[nH]c1=O (stereo not shown) [Compound 14] | – | – | – | 97.1 | 107 | – |
| CCc1cc2cc(C(CCN3CCCCC3)c3ccc4c(c3)OCCO4)ccc2[nH]c1=O (stereo not shown) [Compound 16] | – | – | – | 9.2 | 181 | – |
| CCc1cc2cc(C(c3ccccc3)n3ccnc3)ccc2[nH]c1=O (stereo not shown) [Compound 17] | – | – | – | 152 | 220.1 | 619 |
| CCc1cc2cc(C(NC=O)c3ccc4c(c3)OCCO4)ccc2[nH]c1=O (stereo not shown) [Compound 18] | – | – | – | 19.5 | > 260 | – |
| CCc1nc2cc(CC(O)c3ccc(Cl)cc3)ccc2[nH]c1=O (stereo not shown) [Compound 19] | – | – | – | 256 | 204 | – |
| CCc1nc2cc(CC(c3ccc(Cl)cc3)n3ccnc3)ccc2[nH]c1=O (stereo not shown) [Compound 20] | – | – | – | 275 | 270 | 1750 |
| CCc1nc2cc(CC(c3ccc(Cl)cc3)N3CCCC3)ccc2[nH]c1=O (stereo not shown) [Compound 21] | – | – | – | 191 | 194 | – |
| CCc1nc2cc(C(c3ccc(Cl)cc3)n3cncn3)ccc2[nH]c1=O (stereo not shown) [Compound 22] | – | – | – | 366 | 188 | 4050 |
| CCc1cc2cc(C(=C3CCNCC3)c3ccc4c(c3)OCCO4)ccc2[nH]c1=O [Compound 131] | – | – | – | 27.7 | 249 | – |
| CCc1cc2cc(C(=C3CCN(CCc4ccc(OC)cc4)CC3)c3ccc4c(c3)OCCO4)ccc2[nH]c1=O [Compound 132] | – | – | – | 57.1 | 203 | – |
| CCc1cc2cc(C(=C3CCN(CC(O)COc4ccc(OC)cc4)CC3)c3ccc4c(c3)OCCO4)ccc2[nH]c1=O (stereo not shown) [Compound 133] | – | – | – | 124 | 219 | – |
